Experiment: AAMI 6-week study: essential fatty acid parameters in RBC (gas chromatography)
Assay type: in vivo, human
Details: for AA RBC Mean change from Baseline / DHA RBC Mean change from Baseline / AA RBC 1 or 2 g versus 4 g LS Mean / DHA RBC 1 or 2 g versus 4 g LS Mean: AAMI; for AA RBC Mean change from Baseline / DHA RBC Mean change from Baseline: mean (SD); for DGLA 1 or 2 g versus 4 g, LS Mean / DPAn-3 1 or 2 g versus 4 g, LS Mean / EPA/AA 1 or 2 g versus 4 g, LS Mean / DGLA Mean change from Baseline, Mean (SD) / DPAn-3 Mean change from Baseline, Mean (SD) / EPA/AA Mean change from Baseline, Mean (SD) / DGLA Baseline Mean (SD) / DPAn-3 Baseline Mean (SD) / EPA/AA Baseline Mean (SD): RBC
Protocol: A single-center, 6-week, double-blind, randomizes, parallel-group, placebo-controlled, dose-ranging pilot study was performed to evaluate the efficacy, tolerability, and safety of >96% ethyl-EPA in subjects with subjective and objective memory impairment according to generally accepted criteria for Age-Associated Memory Impairment (“AAMI”). The primary objective of the study was to determine the effect of >96% ethyl-EPA 1 g, 2 g, and 4 g daily, compared to placebo, on cognitive performance in subjects with AAMI.
Ninety-four subjects were randomized into one of six groups: 1 g E-EPA daily (n=23), 2 g E-EPA daily (n=24), 4 g E-EPA daily (n=24), 1 g placebo daily (n=7), 2 g placebo daily (n=8), and 4 g placebo daily (n=8). E-EPA was provided as 500 mg soft gel capsules containing>96% E-EPA and 0.2% dl-α-tocopherol as an antioxidant. Placebo capsules contained 467 mg of liquid paraffin and 0.2% dl-α-tocopherol. Ninety-one subjects completed the study. Two subjects in the 2 g E-EPA group and one subject in the 2 g placebo group discontinued the study.
Blood samples (10 mL) were collected at Visit 1 (screening) and at Visits 4, 5 and 6. Analysis was performed by MSR Lipid Analysis, Scottish Crop Research Institute, Dundee, UK. The screening sample acted as baseline for the EFA measurements. Lipid was extracted from plasma, serum and RBC suspensions and converted into fatty acid methyl esters which were analyzed by gas chromatography to give fatty acid profiles as micrograms fatty acid per gram of sample (μgFA/g) and normalized area percent.
RBC and plasma EFA data were collected at baseline, Day 14, 28 and 42 and summarized by visit for each treatment group. Change from baseline and percent change from baseline were also summarized. ANCOVA comparison of ethyl-EPA dose groups and ethyl-EPA versus placebo was performed.

[1] = Ethyl-EPA 1 g versus 4 g, p-value <0.001

What does the source list for `CC/C=C\C/C=C\C/C=C\C/C=C\C/C=C\CCCC(=O)OCC` [IPE, all-cis eicosa-5,8,11,14,17-pentaenoic acid ethyl ester]?
AA RBC Mean change from Baseline (1 g daily, Day 14): −8.1 (21.95) μg/g; DHA RBC Mean change from Baseline (1 g daily, Day 14): −4.6 (9.76) μg/g; AA RBC Mean change from Baseline (1 g daily, Day 28): −17.0 (20.69) μg/g; DHA RBC Mean change from Baseline (1 g daily, Day 28): −6.4 (11.57) μg/g; AA RBC Mean change from Baseline (1 g daily, Day 42): −14.2 (27.69) μg/g; DHA RBC Mean change from Baseline (1 g daily, Day 42): −7.0 (12.20) μg/g; AA RBC 1 or 2 g versus 4 g LS Mean (1 g versus 4 g): 8.4 µg/g; DHA RBC 1 or 2 g versus 4 g LS Mean (1 g versus 4 g): 1.0 µg/g; AA RBC Mean change from Baseline (2 g daily, Day 14): −3.1 (25.84) μg/g; DHA RBC Mean change from Baseline (2 g daily, Day 14): −2.0 (9.46) μg/g; AA RBC Mean change from Baseline (2 g daily, Day 28): −14.1 (26.89) μg/g; DHA RBC Mean change from Baseline (2 g daily, Day 28): −6.2 (9.34) μg/g; AA RBC Mean change from Baseline (2 g daily, Day 42): −18.8 (25.62) μg/g; DHA RBC Mean change from Baseline (2 g daily, Day 42): −6.3 (9.42) μg/g; AA RBC 1 or 2 g versus 4 g LS Mean (2 g versus 4 g): 9.8 µg/g; DHA RBC 1 or 2 g versus 4 g LS Mean (2 g versus 4 g): 1.0 µg/g; AA RBC Mean change from Baseline (4 g daily, Day 14): −15.7 (26.76) μg/g; DHA RBC Mean change from Baseline (4 g daily, Day 14): −6.9 (9.13) μg/g; AA RBC Mean change from Baseline (4 g daily, Day 28): −22.8 (29.56) μg/g; DHA RBC Mean change from Baseline (4 g daily, Day 28): −8.7 (11.63) μg/g; AA RBC Mean change from Baseline (4 g daily, Day 42): −34.4 (31.44) μg/g; DHA RBC Mean change from Baseline (4 g daily, Day 42): −13.8 (13.76) μg/g; DGLA 1 or 2 g versus 4 g, LS Mean (Ethyl-EPA 1 g versus 4 g, p-value 0.027): 1.5 µg/g; DPAn-3 1 or 2 g versus 4 g, LS Mean [1]: -6.2 µg/g; EPA/AA 1 or 2 g versus 4 g, LS Mean [1]: −0.18; DGLA Mean change from Baseline, Mean (SD) (Ethyl-EPA 1 g, Day 14): −2.7 (3.82) μg/g; DPAn-3 Mean change from Baseline, Mean (SD) (Ethyl-EPA 1 g, Day 14): 0.9 (5.03) μg/g; EPA/AA Mean change from Baseline, Mean (SD) (Ethyl-EPA 1 g, Day 14): 0.1 (0.04); DGLA Mean change from Baseline, Mean (SD) (Ethyl-EPA 1 g, Day 28): −3.8 (3.31) μg/g; DPAn-3 Mean change from Baseline, Mean (SD) (Ethyl-EPA 1 g, Day 28): 3.3 (5.42) μg/g; EPA/AA Mean change from Baseline, Mean (SD) (Ethyl-EPA 1 g, Day 28): 0.1 (0.05); DGLA Mean change from Baseline, Mean (SD) (Ethyl-EPA 1 g, Day 42): −3.5 (4.51) μg/g; DPAn-3 Mean change from Baseline, Mean (SD) (Ethyl-EPA 1 g, Day 42): 6.5 (6.19) μg/g; EPA/AA Mean change from Baseline, Mean (SD) (Ethyl-EPA 1 g, Day 42): 0.1 (0.06); DGLA Baseline Mean (SD) (Ethyl-EPA 1 g): 23.0 (5.19) μg/g; DPAn-3 Baseline Mean (SD) (Ethyl-EPA 1 g): 34.1 (5.43) μg/g; EPA/AA Baseline Mean (SD) (Ethyl-EPA 1 g): 0.1 (0.07); DPAn-3 1 or 2 g versus 4 g, LS Mean (Ethyl-EPA 2 g versus 4 g, p-value 0.002): -2.5 µg/g; DGLA 1 or 2 g versus 4 g, LS Mean (Ethyl-EPA 2 g versus 4 g, p-value 0.032): 1.5 µg/g; EPA/AA 1 or 2 g versus 4 g, LS Mean (Ethyl-EPA 2 g versus 4 g, p-value <0.001): −0.11; DGLA Mean change from Baseline, Mean (SD) (Ethyl-EPA 2 g, Day 14): −2.6 (3.54) μg/g; DPAn-3 Mean change from Baseline, Mean (SD) (Ethyl-EPA 2 g, Day 14): 5.6 (6.28) μg/g; EPA/AA Mean change from Baseline, Mean (SD) (Ethyl-EPA 2 g, Day 14): 0.2 (0.04); DGLA Mean change from Baseline, Mean (SD) (Ethyl-EPA 2 g, Day 28): −4.5 (3.58) μg/g; DPAn-3 Mean change from Baseline, Mean (SD) (Ethyl-EPA 2 g, Day 28): 9.4 (6.74) μg/g; EPA/AA Mean change from Baseline, Mean (SD) (Ethyl-EPA 2 g, Day 28): 0.02 (0.06); DGLA Mean change from Baseline, Mean (SD) (Ethyl-EPA 2 g, Day 42): −5.3 (3.65) μg/g; DPAn-3 Mean change from Baseline, Mean (SD) (Ethyl-EPA 2 g, Day 42): 13.2 (7.23) μg/g; EPA/AA Mean change from Baseline, Mean (SD) (Ethyl-EPA 2 g, Day 42): 0.3 (0.06); DGLA Baseline Mean (SD) (Ethyl-EPA 2 g): 23.0 (5.76) μg/g; DPAn-3 Baseline Mean (SD) (Ethyl-EPA 2 g): 33.2 (4.51) μg/g; EPA/AA Baseline Mean (SD) (Ethyl-EPA 2 g): 0.1 (0.06); DGLA Mean change from Baseline, Mean (SD) (Ethyl-EPA 4 g, Day 14): −5.3 (4.10) μg/g; DPAn-3 Mean change from Baseline, Mean (SD) (Ethyl-EPA 4 g, Day 14): 5.4 (5.38) μg/g; EPA/AA Mean change from Baseline, Mean (SD) (Ethyl-EPA 4 g, Day 14): 0.3 (0.07); DGLA Mean change from Baseline, Mean (SD) (Ethyl-EPA 4 g, Day 28): −7.1 (4.63) μg/g; DPAn-3 Mean change from Baseline, Mean (SD) (Ethyl-EPA 4 g, Day 28): 12.4 (6.98) μg/g; EPA/AA Mean change from Baseline, Mean (SD) (Ethyl-EPA 4 g, Day 28): 0.4 (0.11); DGLA Mean change from Baseline, Mean (SD) (Ethyl-EPA 4 g, Day 42): −8.0 (4.98) μg/g; DPAn-3 Mean change from Baseline, Mean (SD) (Ethyl-EPA 4 g, Day 42): 16.2 (10.07) μg/g; EPA/AA Mean change from Baseline, Mean (SD) (Ethyl-EPA 4 g, Day 42): 0.4 (0.14); DGLA Baseline Mean (SD) (Ethyl-EPA 4 g): 24.0 (5.77) μg/g; DPAn-3 Baseline Mean (SD) (Ethyl-EPA 4 g): 34.5 (4.34) μg/g; EPA/AA Baseline Mean (SD) (Ethyl-EPA 4 g): 0.1 (0.04)
